Experimental data reported in patent publication US20260364072A1, “METHODS FOR PROMOTING EXPANSION OF HUMAN CD34+ CELLS IN VIVO AND FOR PROMOTING NEURAL REGENERATION” (THE REGENTS OF THE UNIVERSITY OF CALIFORNIA, priority 2023, published 2026).

Columns and labels:
[1] = Rabbit single-dose toxicokinetic study; type: in vivo, New Zealand white rabbits; conditions: IV bolus
Description: Pre-IND PD and toxicokinetic (TK) studies (FIG. 4D) were enabled by scalable Rebecsinib synthesis^34 and development of an optimized formulation for in vivo biodistribution (5% w/v EtOH, 5% w/v Kolliphor HS15 in 0.9% Sodium Chloride). In PK studies, Rebecsinib was detectable in rat, rabbit, and non-human primate (NHP) plasma following IV bolus administration. In rat TK studies, Rebecsinib was quantifiable up to 1-hour post-dose at 1 mg/kg and up to 4 hours post-dose at 3, 5, and 8 mg/kg (FIG. 4E). […] Rebecsinib T1/2 values were 0.342, 0.447, 0.313, and 0.530 hours at 1, 3, 5, and 8 mg/kg, respectively. […] Following 3, 10, and 20 mg/kg boluses, Rebecsinib was quantifiable in plasma 1 hour post-dose and could be detected up to 8 hours post-dosing with 40 mg/kg (FIG. 4F). […] Following 3, 10, 15, and 20 mg/kg of Rebecsinib, quantifiable plasma concentrations of Rebecsinib were observed through 8 hrs post-dose (FIG. 4G).
(FIG. 29D) Schematic diagram outlining multispecies toxicokinetic (TK) and pharmacodynamic studies in mammalian species treated in vivo with a single dose of Rebecsinib. Toxicokinetic analyses were performed in rats (n=6 per sex, per group), rabbits (n=2 per sex, per group), and non-human primates (NHPs, n=1 per sex, per group) and pharmacodynamic splice isoform quantification studies were performed in peripheral blood mononuclear cells (PBMCs) from NHP.
(FIG. 29E, FIG. 29F) For toxicokinetic analyses, rats (FIG. 29E) and rabbits (FIG. 29F) were given a single injection of Rebecsinib at 1-40 mg/kg, or vehicle control, and blood samples were drawn at regular intervals to determine plasma concentrations of the compound over 8 hr after treatment.
Single-dose TK studies were performed in Sprague Dawley rats (Charles River Labs, South San Francisco, CA), New Zealand white rabbits (BASi/Inotiv, West Lafayette, IN), and cynomolgus monkeys (BASi/Inotiv). Rat and rabbit studies included toxicology analyses, quantification of plasma levels of Rebecsinib, and necropsies to evaluate organ integrity after treatment. For NHP studies, health and ophthalmological evaluations were performed before and after dosing with Rebecsinib, and blood samples were collected for quantification of plasma levels of Rebecsinib and biomarker studies in PBMCs from treated and control animals. All monkeys were returned to the animal colony after the end of the observation period. Toxicokinetic values including mean plasma concentrations and t1/2 values were calculated according to CRO-approved protocols (Charles River and BASi).

ADAR1p150 = ADAR1p150 protein by intracellular flow cytometry in sAML50261 engrafted mice; type: in vivo, human cells in mice; conditions: human HSC and HPC, spleens of sAML50261 engrafted mice, vs vehicle
Description: FIG. 30D illustrates a mean fluorescence intensity (MFI) of ADAR1p150 protein levels in human HSCs (CD45^+CD34^+CD38^−Lin^−) and HPCs (CD45^+CD34^+CD38^+Lin^−) from the spleens of sAML50261 engrafted mice treated with Rebecsinib or vehicle;
Flow cytometry for stem and progenitor cell surface antibody staining was performed as previously described.^14 For phospho-flow, a subset of samples was fixed and permeabilized, then blocked and stained with APC-conjugated ADAR1p150 antibody (cat ab269444, 1:25) and pSTAT3 APC (cat 17-9033-42, 1:10) (Table S2). Fractions were analyzed with the BD LSR FORTESSA™ (Sanford Consortium for Regenerative Medicine Stem Cell Core) and FLOWJO™ software (TreeStar, Ashland, OR).
In humanized mouse models, sAML cells (CD34^+) from two unique […] patient samples that were splicing factor mutated or unmutated were utilized, including sAML50261 and sAML2008-5.^14 For in vivo efficacy and therapeutic index studies, sAML CD34^+ cells, or normal human cord blood-derived or aged bone marrow-derived HSPCs (CD34^+), were transplanted (50,000-200,000 cells per mouse) intrahepatically into neonatal Rag2^−/−γc^−/− mice, or intravenously into adult NSG-SGM3 mice (Jackson Laboratories, Bar Harbor, ME). A subset of experiments was performed with normal aged bone marrow cells that were transduced with the lentiviral ADAR1 nanoluc-GFP reporter vector prior to transplant. […]

In the case of `CC[C@H](OC)[C@@H](C)[C@H]1O[C@@H]1[C@@H](O)[C@H](C)/C=C/C=C(\C)[C@H]1OC(=O)C[C@H](O)CC[C@@](C)(O)[C@@H](OC(C)=O)/C=C/[C@@H]1C` [Rebecsinib], the “time quantifiable in plasma post-dose” value ([1]; 3 mg/kg) is reported as 1 h, the “time quantifiable in plasma post-dose” value ([1]; 10 mg/kg) is reported as 1 h and the “time quantifiable in plasma post-dose” value ([1]; 20 mg/kg) is reported as 1 h. The “last time detected in plasma post-dosing” value ([1]; 40 mg/kg) was “up to 8 hours”, the half-life ([1]; plasma, read-out: plasma t1/2) was 7.2 to 53.4 min and the “ADAR1p150 protein isoform levels” value (ADAR1p150) was “significantly decreased ADAR1p150 protein isoform levels”.
